Columns and labels:
Assay type in all cases: functional, cell-based
[1] = target: ATP-dependent translocase ABCB1 (Mus musculus, UniProt P21447); assay: TP_TRANSPORTER: uptake in L cell and LV500 cell
[2] = target: ATP-dependent translocase ABCB1 (Mus musculus, UniProt P06795); assay: TP_TRANSPORTER: uptake, not inhibited by Verapamil in MBEC4 cell
[3] = target: ATP-dependent translocase ABCB1 (Homo sapiens, UniProt P08183); assay: TP_TRANSPORTER: uptake in LLC-PK1 cell and LLC-GA5-COL300 cells; settings: pig
Chain of ATP-dependent translocase ABCB1 (Homo sapiens, UniProt P08183) (P08183 whole entry): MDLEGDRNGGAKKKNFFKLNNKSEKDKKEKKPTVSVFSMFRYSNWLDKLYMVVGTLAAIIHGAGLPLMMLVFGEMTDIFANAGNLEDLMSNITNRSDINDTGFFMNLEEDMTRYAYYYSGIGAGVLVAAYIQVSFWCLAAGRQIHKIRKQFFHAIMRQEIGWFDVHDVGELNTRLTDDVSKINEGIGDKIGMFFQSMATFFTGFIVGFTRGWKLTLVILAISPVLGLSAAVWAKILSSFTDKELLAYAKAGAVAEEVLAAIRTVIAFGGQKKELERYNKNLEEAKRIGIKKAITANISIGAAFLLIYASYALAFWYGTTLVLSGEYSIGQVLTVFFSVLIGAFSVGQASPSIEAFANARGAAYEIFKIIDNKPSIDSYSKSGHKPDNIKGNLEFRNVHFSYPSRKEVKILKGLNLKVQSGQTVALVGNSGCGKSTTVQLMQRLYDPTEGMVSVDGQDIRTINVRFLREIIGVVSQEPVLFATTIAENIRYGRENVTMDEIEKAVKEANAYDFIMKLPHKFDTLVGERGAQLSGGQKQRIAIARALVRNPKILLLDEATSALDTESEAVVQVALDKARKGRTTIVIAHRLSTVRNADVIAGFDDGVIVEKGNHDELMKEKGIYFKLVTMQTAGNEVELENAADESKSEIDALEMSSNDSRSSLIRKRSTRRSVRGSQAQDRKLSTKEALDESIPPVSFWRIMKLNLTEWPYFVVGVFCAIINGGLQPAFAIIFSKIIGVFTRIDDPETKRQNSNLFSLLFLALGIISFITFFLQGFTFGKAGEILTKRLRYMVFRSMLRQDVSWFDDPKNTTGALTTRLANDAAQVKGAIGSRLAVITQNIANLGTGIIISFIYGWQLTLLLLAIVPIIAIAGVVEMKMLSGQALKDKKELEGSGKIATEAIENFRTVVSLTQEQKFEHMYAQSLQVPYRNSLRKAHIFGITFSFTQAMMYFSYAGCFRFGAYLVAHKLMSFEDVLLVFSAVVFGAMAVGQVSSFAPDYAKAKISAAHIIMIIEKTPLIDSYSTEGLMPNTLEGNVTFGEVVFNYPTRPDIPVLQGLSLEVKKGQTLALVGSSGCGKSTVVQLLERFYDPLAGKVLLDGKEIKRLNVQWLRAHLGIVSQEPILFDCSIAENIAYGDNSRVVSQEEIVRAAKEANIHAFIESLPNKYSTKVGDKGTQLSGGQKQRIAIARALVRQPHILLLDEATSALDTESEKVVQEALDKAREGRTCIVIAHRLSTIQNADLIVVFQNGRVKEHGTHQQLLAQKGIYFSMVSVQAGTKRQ

Chain of ATP-dependent translocase ABCB1 (Mus musculus, UniProt P06795) (P06795 whole entry): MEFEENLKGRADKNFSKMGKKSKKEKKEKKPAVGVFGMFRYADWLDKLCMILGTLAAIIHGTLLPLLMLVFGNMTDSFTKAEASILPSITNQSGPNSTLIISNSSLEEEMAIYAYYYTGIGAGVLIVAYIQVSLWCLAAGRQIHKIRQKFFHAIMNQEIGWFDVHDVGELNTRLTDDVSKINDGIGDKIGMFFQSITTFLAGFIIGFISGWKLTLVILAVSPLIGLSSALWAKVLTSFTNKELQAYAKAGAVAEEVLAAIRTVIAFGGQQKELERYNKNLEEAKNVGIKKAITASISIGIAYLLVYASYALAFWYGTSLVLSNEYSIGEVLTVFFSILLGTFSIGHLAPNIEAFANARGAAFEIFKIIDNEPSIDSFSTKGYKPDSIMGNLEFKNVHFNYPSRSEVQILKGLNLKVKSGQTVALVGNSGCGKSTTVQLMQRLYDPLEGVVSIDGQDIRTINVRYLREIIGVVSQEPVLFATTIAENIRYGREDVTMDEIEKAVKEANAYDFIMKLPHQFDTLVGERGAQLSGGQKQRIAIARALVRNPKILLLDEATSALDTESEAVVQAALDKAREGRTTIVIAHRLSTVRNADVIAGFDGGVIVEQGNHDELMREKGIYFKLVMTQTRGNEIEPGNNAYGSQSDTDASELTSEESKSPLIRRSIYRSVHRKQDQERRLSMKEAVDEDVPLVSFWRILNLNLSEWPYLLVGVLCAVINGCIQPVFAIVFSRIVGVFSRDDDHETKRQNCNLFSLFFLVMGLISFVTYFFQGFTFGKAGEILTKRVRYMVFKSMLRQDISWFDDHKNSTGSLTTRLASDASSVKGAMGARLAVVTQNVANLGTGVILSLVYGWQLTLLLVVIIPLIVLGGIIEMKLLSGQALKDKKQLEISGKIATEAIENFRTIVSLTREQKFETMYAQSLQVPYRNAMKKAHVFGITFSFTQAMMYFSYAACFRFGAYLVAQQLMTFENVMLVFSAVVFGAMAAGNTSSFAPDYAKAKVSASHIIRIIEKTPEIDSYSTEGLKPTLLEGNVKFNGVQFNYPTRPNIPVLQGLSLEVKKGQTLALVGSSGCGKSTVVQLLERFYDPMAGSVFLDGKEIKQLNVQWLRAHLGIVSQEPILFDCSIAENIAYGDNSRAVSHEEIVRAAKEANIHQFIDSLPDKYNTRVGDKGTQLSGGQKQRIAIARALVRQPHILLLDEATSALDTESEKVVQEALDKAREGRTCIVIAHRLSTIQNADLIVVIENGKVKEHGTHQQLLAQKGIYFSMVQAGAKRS
Chain of ATP-dependent translocase ABCB1 (Mus musculus, UniProt P21447) (P21447 whole entry): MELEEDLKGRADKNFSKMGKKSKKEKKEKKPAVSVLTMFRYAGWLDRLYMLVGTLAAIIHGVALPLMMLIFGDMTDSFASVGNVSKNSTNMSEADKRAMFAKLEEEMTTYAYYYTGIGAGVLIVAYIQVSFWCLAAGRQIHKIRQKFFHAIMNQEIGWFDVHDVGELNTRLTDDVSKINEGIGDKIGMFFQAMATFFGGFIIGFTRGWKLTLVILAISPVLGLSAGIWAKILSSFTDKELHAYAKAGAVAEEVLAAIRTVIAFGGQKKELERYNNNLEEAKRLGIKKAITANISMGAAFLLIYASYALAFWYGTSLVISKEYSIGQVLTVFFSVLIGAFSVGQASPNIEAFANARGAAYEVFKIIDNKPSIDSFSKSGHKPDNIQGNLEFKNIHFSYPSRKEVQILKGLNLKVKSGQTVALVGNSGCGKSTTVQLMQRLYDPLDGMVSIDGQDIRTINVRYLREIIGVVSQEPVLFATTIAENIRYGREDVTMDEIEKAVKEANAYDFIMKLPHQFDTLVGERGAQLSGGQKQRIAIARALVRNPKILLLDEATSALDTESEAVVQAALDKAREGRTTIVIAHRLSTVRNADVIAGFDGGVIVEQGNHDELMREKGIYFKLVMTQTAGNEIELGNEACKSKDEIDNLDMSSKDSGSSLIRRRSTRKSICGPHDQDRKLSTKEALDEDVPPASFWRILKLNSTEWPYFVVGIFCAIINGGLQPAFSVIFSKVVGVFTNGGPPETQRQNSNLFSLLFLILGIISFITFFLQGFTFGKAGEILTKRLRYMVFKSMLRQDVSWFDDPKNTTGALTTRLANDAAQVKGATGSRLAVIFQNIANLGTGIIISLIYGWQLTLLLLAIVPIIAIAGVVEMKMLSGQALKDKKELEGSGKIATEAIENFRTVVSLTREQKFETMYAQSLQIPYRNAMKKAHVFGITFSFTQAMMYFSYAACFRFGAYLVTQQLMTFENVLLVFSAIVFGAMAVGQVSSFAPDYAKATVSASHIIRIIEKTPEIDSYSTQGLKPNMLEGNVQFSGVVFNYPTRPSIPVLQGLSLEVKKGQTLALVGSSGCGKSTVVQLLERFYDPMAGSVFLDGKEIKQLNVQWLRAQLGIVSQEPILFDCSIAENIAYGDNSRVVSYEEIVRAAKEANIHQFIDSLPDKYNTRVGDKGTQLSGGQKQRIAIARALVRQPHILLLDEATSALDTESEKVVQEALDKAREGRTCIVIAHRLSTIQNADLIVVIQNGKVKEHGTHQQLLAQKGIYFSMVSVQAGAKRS

Activity [1]: substrate [+] | Activity [2]: is not a substrate [-] | Activity [3]: substrate [+]
Structure (SMILES): Cn1cc(C(=O)[C@@H]2CCc3nc[nH]c3C2)c2ccccc21 [RAMOSETRON]
